Measurements published in patent US20090143452A1, “Use of prochloraz for wood protection” (priority 2005, published 2009).
“Also recorded” adds a separate entry of the source.

Columns and labels:
[1] = system: soft-rot fungi; experiment: Activity against soft rot, test based on ENV 807 (reduction in mass of treated Pinus sylvestris wood samples); conditions: for Activity against soft-rot fungi in the test according to ENV 807 (in words): 0.3% active compound where stated; for Reduction in mass in % (mean): Pinus sylvestris specimens vacuum drenched with 0.3% active compound solution, ageing per EN 84, 20 weeks incubation
Experimental: The activity of prochloraz and of a copper/chromate preparation and tebuconazole, 3-iodo-2-propynyl butylcarbarbamate (IPBC) and imazalil was determined in a test based on ENV 807 (12/2001). To this end, test specimens of the wood type Pinus sylvestris of a size of 40×15×4 mm were vacuum drenched with 0.3 and 0.4% strength active compound solutions and conditioned for 14 days. This was followed by accelerated ageing according to EN 84.
Subsequently, the wood samples were placed on a malt agar medium according to EN 113 and inoculated with a spore suspension according to ENV 807. After 20 weeks of incubation, the reduction in mass of the wood samples treated was determined.

[2] = system: blueing fungi; conditions: J. A. Drysdale et al., New Zealand Journal of Forestry Science 1982; cited from earlier work

Row | SMILES | Activity against soft-rot fungi in the test according to ENV 807 (in words) [1] | Reduction in mass in % (mean) [1] [%] | Activity against blueing fungi (in words) [2] | Activity against soft-rot fungi in the test according to ENV 807 (in words) ([1]; listed as prochloraz)
1 | C=CCOC(Cn1ccnc1)c1ccc(Cl)cc1Cl (stereo not shown) [Imazalil, imazalil] | entirely insufficient activity; also recorded: insufficiently active | >4 |  | 
2 | CCCCNC(=O)OCC#CI [IPBC, 3-iodo-2-propynyl butylcarbarbamate] | entirely insufficient activity; also recorded: insufficiently active | >4 |  | 
3 | CCCN(CCOc1c(Cl)cc(Cl)cc1Cl)C(=O)n1ccnc1 [Prochloraz, N-propyl-N-[2-(2,4,6-trichlorophenoxy)ethyl]imidazole-1-carboxamide] | broad activity | <2 | insufficiently active | excellent activity; also recorded: effect comparable to that of the 0.4% strength copper/chromium standard
4 | CC(C)(C)C(O)(CCc1ccc(Cl)cc1)Cn1cncn1 (stereo not shown) [Tebuconazole, tebuconazole] | insufficiently active | >4 |  | 
